≈ marks a conversion by molar mass, not a printed value.
Legend:
[1] = tested on: MES-SA/Dx5 cell line; assay: Effect of flavonoid on multidrug (paclitaxel) resistance of MES-SA/Dx5 cell line; type: cell-based, human; settings: Homo sapiens; concentration of flavonoid for 50% reduction of relative resistance value to paclitaxel; MES-SA/Dx5 (P-glycoprotein overexpression), 48 hours; read-out: Resistance overcoming effect EC50
Procedure: Human uterine cancer MES-SA cell line or MES-SA/Dx5 cell line which had acquired multidrug resistance through overexpression of P-glycoprotein (Cancer Res. 45, 4091-4096 (1985)) was suspended in 10% FBS/DMEM, and the resultant suspension was inoculated into a 96-well microplate, followed by culturing at 5% CO2 and 37° C. overnight (3×10^3 cells/50 μL/well). Thereafter, a solution of a flavonoid and paclitaxel in 10% FBS/DMEM (25 μL) was added to each of the wells, followed by culturing at 5% CO2 and 37° C. for 48 hours. After completion of culturing, the number of viable cells was counted by use of TetraColor ONE according to the attached instruction manual.

[2] = tested on: A549/SN-38-4 cell line; assay: Effect of flavonoid in overcoming anticancer drug (SN-38) resistance of A549/SN-38 cell line; type: cell-based, human; settings: Homo sapiens; concentration of flavonoid for 50% reduction of relative resistance value to SN-38; A549/SN-38-4, 48 hours
Procedure: The A549 cell line or the A549/SN-38-4 cell line was suspended in 10% FBS/Ham's F-12, and the resultant suspension was inoculated into a 96-well microplate, followed by culturing at 5% CO2 and 37° C. overnight (2×10^3 cells/50 μL/well). Thereafter, a solution of a flavonoid and SN-38 in 10% FBS/Ham's F-12 (25 μL) was added to each of the wells, followed by culturing at 5% CO2 and 37° C. for 48 hours. After completion of culturing, the number of viable cells was counted by use of TetraColor ONE according to the attached instruction manual.

[3] = tested on: P388/BCRP cell line; assay: Effect of flavonoid in overcoming anticancer drug resistance in vivo (survival of tumor-implanted mice); design: species or system mouse; settings: compound 100 mg/kg/day + CPT-11 20 mg/kg/day, intraperitoneally once a day, days 1 to 10; CDF1 mice
Procedure: Groups of six-week-old female CDF1 mice, each group consisting of 5 mice, were employed. The P388 cell line or the P388/BCRP cell line (1×10^6 cells) was implanted into the peritoneal cavity of each of the mice. […] Merely the solvent was administered to mice in the control group. In order to evaluate the antitumor effect of the flavonoid, survival rate T/C (%) was calculated from the survival days of the tumor-implanted mice by use of the following formula.
Survival rate T/C (%)=(the mean survival days of mice in the treated flavonoid group)÷(the mean survival days of mice in the control group)×100

[4] = tested on: A549/SN-38-4 cell line; assay: Amount of anticancer drug accumulated in A549/SN-38 cell line; type: cell-based, human; settings: both the A549 cell line and the A549/SN-38-4 cell line; SN-38 300 ng/mL, 60 minutes
Procedure: The A549 cell line or the A549/SN-38-4 cell line (4×10^6 cells/mL) was suspended in 10% FBS/RPMI1640 (1 mL), and an SN-38 DMSO solution (1 μL, final concentration: 300 ng/mL) was added to the resultant suspension, followed by incubation at 37° C. for 60 minutes. Thereafter, centrifugation was performed (2° C., 1,400×g, 1 min), and the resultant supernatant was removed. Ice-cooled PBS was added to the thus-precipitated cells, and the cells were resuspended therein, followed by centrifugation (2° C., 1,400×g, 1 min) for washing of the cells. This washing procedure was performed again, followed by addition of PBS (375 μL) and sonication of the cells. To the resultant destructed cells, methanol (375 μL) and 10% zinc sulfate solution (15 μL) were added, and the resultant mixture was stirred, followed by centrifugation (2° C., 12,500×g, 5 min) and collection of the supernatant. The thus-collected supernatant was dispensed in a white 96-well microplate for fluorescence intensity measurement (200 μL/well), and then the amounts of SN-38 and an SN-38-glucuronide contained in the supernatant were measured by use of a microplate fluorometer [SPECTRA max GEMINI XS (trade name), product of Molecular Devices] […]

[5] = tested on: A549/SN-38-4 cell line; assay: Anticancer drug sensitivity test, A549/SN-38-4; type: cell-based, human; settings: stated for the A549/SN-38 cell lines; FIG. 1 shows A549/SN-38-4
Procedure: Human non-small cell lung cancer A549 cell line was subcultured at 5% CO2 and 37° C. by use of a Ham's F-12 medium containing 10% FBS, 100 U/mL of penicillin, and 100 μg/mL of streptomycin (10% FBS/Ham's F-12). SN-38-resistant A549 cell lines were selected by subculturing the A549 cell line in a medium for two months while the concentration of SN-38 contained in the medium was increased in a stepwise manner (4 to 10 ng/mL). Subsequently, the resultant SN-38-resistant A549 cell lines were subjected to cloning by means of limiting dilution, to thereby establish six cloned SN-38-resistant A549 cell lines (A549/SN-38-1 to 6).
Thereafter, a solution of an anticancer drug in 10% FBS/Ham's F-12 (50 μL) was added to each of the wells, followed by culturing at 5% CO2 and 37° C. for 48 hours. After completion of culturing, the number of viable cells was counted by use of a viable cell counting reagent [TetraColor ONE (trade name), product of Seikagaku Corporation] according to the attached instruction manual. […] “Relative resistance value” is obtained by dividing the IC50 for an A549/SN-38 cell line by the IC50 for the A549 cell line. The greater the relative resistance value, the higher the level of acquired resistance.

Structure (SMILES): COc1ccc2c(=O)cc(-c3ccc(OC)c(OC)c3)oc2c1 [Compound 1-14, 3′,4′,7-Trimethoxyflavone]
- EC50 [1]: > 1 mg/L
- EC50 [2]: 0.0078 mg/L (≈ 0.025 µM)
- Survival days Mean ± S.D. [3]: 18.4 ± 4.5 days
- Survival rate T/C [3]: 153%

Structure (SMILES): COc1cc2oc(-c3ccccc3)cc(=O)c2cc1OC [Compound 1-15, 6,7-Dimethoxyflavone]
- EC50 [1]: > 1 mg/L
- EC50 [2]: 0.16 mg/L (≈ 0.567 µM)
- Survival days Mean ± S.D. [3]: 18.2 ± 3.9 days
- Survival rate T/C [3]: 152%

Structure (SMILES): COc1ccc(/C=C/C(=O)c2ccc(O)cc2O)cc1OC [Compound 3-5, 2′,4′-Dihydroxy-3,4-dimethoxychalcone]
- EC50 [1]: > 1 mg/L
- EC50 [2]: 0.04 mg/L (≈ 0.133 µM)
- Survival days Mean ± S.D. [3]: 18.4 ± 0.5 days
- Survival rate T/C [3]: 153%

Structure (SMILES): CCc1c2c(nc3ccc(O[C@@H]4O[C@H](C(=O)O)[C@@H](O)[C@H](O)[C@H]4O)cc13)-c1cc3c(c(=O)n1C2)COC(=O)[C@]3(O)CC [SN-38-glucuronide]
- SN-38-glucuronide detected in cells [4]: virtually no SN-38-glucuronide was detected

Structure (SMILES): CCc1c2c(nc3ccc(O)cc13)-c1cc3c(c(=O)n1C2)COC(=O)[C@]3(O)CC [SN-38]
- Resistance of the A549/SN-38 cell lines to the drug (in words) [5]: particularly strong resistance

Structure (SMILES): O=C1c2c(O)ccc(O)c2C(=O)c2c(NCCNCCO)ccc(NCCNCCO)c21 [mitoxantrone]
- Resistance of the A549/SN-38 cell lines to the drug (in words) [5]: particularly strong resistance

Source: patent US20080287374A1, “BREAST CANCER-RESISTANT PROTEIN INHIBITOR” (KABUSHIKI KAISHA YAKULT HONSHA, priority 2003, published 2008)
